In one experiment the target is α-amylase. The note with it: cited from earlier work.
In experiment [1] the target is T1, Porcine pancreatic α-amylase (Sus scrofa, UniProt P00690).
T1 construct: purchased Sigma-Aldrich Chemical Co. (St. Louis, MO, USA) A3176
T1 sequence (P00690 16-511): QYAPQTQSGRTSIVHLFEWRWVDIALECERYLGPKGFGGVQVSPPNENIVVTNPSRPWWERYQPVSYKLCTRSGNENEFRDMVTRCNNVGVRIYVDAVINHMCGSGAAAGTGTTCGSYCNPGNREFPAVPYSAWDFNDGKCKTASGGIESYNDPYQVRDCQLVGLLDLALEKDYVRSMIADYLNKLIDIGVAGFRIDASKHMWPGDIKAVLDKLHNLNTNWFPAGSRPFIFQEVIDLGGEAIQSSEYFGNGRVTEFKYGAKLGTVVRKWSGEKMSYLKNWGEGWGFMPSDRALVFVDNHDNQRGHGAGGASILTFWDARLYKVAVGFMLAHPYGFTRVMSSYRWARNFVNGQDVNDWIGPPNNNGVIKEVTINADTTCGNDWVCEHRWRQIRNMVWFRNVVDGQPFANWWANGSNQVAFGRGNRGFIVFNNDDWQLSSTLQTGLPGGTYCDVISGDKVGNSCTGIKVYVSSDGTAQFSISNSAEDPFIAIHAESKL
Briefly: In vitro α-amylase inhibition assay (starch/DNS, absorbance at 540 nm). Type of experiment: biochemical. To be noted: for IC50: 0.2 M potassium phosphate buffer pH 6.8, 37 °C, mean ± SD, triplicate, read-out: IC50 Values against α-Amylase (converted); for inhibited α-amylase more than the analogue without the 2-hydroxyl group: compared with 4-hydroxybenzoic acid (Group 1) or 3,4-dihydroxybenzoic acid (Group 2), Figure 1. As to the method:
The α-amylase inhibition assay was adapted from Phan et al. with slight modifications. In order to simulate the small intestine conditions, a buffer pH of 6.8 and an incubation temperature of 37 °C were used. Porcine pancreatic α-amylase was dissolved in 0.2 M potassium phosphate buffer (pH 6.8). Phenolic acid solutions were prepared in 80% DMSO. […] An aliquot of 50 μL of phenolic acid solution (10, 20, 30, 40 and 50 mM) was mixed with 400 μL of 0.2 M potassium phosphate buffer (pH 6.8 with 7 mM NaCl) in a 2 mL tube. After adding 100 μL of the enzyme solution (0.5 unit/mL), the tube was incubated at 37 °C for 5 min. Subsequently, 450 μL of the cooked soluble starch solution (5 mg/mL) was added to initiate the reaction at 37 °C for 20 min, followed by the addition of 500 μL of DNS reagent, and then the tubes were boiled for 15 min at 100 °C to inactivate the enzyme. A total of 200 μL of the reaction solution was transferred to a 96-well plate and the absorbance was measured at 540 nm using a microplate reader (Tecan Infinite 200 PRO; Tecan, Männedorf, Zürich, Switzerland). All of the samples were prepared and measured in triplicate. The inhibition rate was calculated using the following formula: (1) Inhibition(%)={1−A[sample]−A[blank]/A[control+]−A[control−]}×100 where:
A [control+] is absorbance at 100% enzyme activity (buffer with starch and enzyme);
A [control−] is starch background absorbance (buffer and starch without enzyme);
A [sample] is test sample absorbance (buffer with enzyme, starch and inhibitor);
A [blank] is inhibitor and starch background absorbance (a test sample without enzyme).
The inhibition rates were plotted against the logarithmic values of six concentrations of the test inhibitor and a non-linear regression analysis was employed to generate a dose-response curve and calculate the IC50 values (mM and mg/mL).

The mark [2] stands for this setting: recent studies, read-out: IC50 for α-amylase.
[3] abbreviates: lower buffer concentration (0.02 M) than in this study, read-out: IC50 previously reported.

Each structure is given as a SMILES string. “And” between values parts separate entries of the source, which are not always exact repeats. Equal values may be shown once. Read-outs that look alike come from different tables or passages of the source.

For orientation: IC50 means the concentration that gives 50% inhibition.

As to `O=C(O)c1cc(O)ccc1O` [2,5-dihydroxybenzoic acid, reference compound], the IC50 on α-amylase (setting [2]) was 0.298 mM. Regarding `O=C(O)c1ccccc1` [Compound 1, Benzoic acid], the IC50 in experiment [1] is 45.2 mM. On to `O=C(O)c1ccc(O)cc1` [Compound 2, 4-Hydroxybenzoic acid], for which, in experiment [1], the IC50 was 25.7 mM. As for `O=C(O)c1ccc(O)cc1O` [Compound 3, 2,4-Dihydroxybenzoic acid], in experiment [1], the IC50 is 19.3 mM and the “inhibited α-amylase more than the analogue without the 2-hydroxyl group” value worked out at 33.31%.

`O=C(O)c1ccc(O)c(O)c1` [Compound 4, 3,4-Dihydroxybenzoic acid]: the figures for the half-inhibitory concentration (IC50) (at α-amylase (setting [3]); in experiment [1]) were 11.5 ± 0.45 mM and 25.4 mM, respectively. Regarding `O=C(O)c1ccc(O)c(O)c1O` [Compound 5, 2,3,4-Trihydroxybenzoic acid], the results for the IC50 (on α-amylase (setting [2]); in experiment [1]) were 33.3 mM and 17.3 mM, respectively. For the same molecule, the “inhibited α-amylase more than the analogue without the 2-hydroxyl group” value in experiment [1] amounted to 46.56%. Regarding `O=C(O)c1c(O)cc(O)cc1O` [Compound 6, 2,4,6-Trihydroxybenzoic acid], the IC50 in experiment [1] was 20.6 mM. In the case of `O=C(O)c1cc(O)c(O)c(O)c1` [Compound 7, 3,4,5-Trihydroxybenzoic acid], the IC50 on α-amylase (setting [3]) is 7.46 ± 0.24 mM; on α-amylase (setting [2]) it was 1.25 mM; in experiment [1], 26.1 mM.

For `Cc1ccc(C(=O)O)cc1` [Compound 8, 4-Methylbenzoic acid], in experiment [1], the IC50 was 52.3 mM. `Cc1cc(O)ccc1C(=O)O` [Compound 9, 4-Hydroxy-2-methylbenzoic acid]: the IC50 in experiment [1] was 23.4 mM. Consider `Cc1cc(C(=O)O)ccc1O` [Compound 10, 4-Hydroxy-3-methylbenzoic acid], for which the IC50 in experiment [1] was 28.6 mM. Take `Cc1cc(C(=O)O)cc(C)c1O` [Compound 11, 4-Hydroxy-3,5-dimethylbenzoic acid]: the IC50 in experiment [1] was 26 mM. `Cc1cc(O)cc(O)c1C(=O)O` [Compound 12, 2,4-Dihydroxy-6-methylbenzoic acid]: the IC50 in experiment [1] was 18.1 mM. On the same count and under the same terms, as for `COc1ccc(C(=O)O)cc1` [Compound 13, 4-Methoxybenzoic acid], the figure is 44.2 mM and 44.1 mM; as for `COc1cc(O)ccc1C(=O)O` [Compound 14, 4-Hydroxy-2-methoxybenzoic acid], 48.9 mM. Take `COc1cc(C(=O)O)ccc1O` [Compound 15, 4-Hydroxy-3-methoxybenzoic acid]: the IC50 at α-amylase (setting [2]) was 27.9 mM; in experiment [1], 24.4 mM. For `COc1cc(C(=O)O)cc(O)c1O` [Compound 16, 3,4-Dihydroxy-5-methoxybenzoic acid], the IC50 in experiment [1] is 37.8 mM.

For the molecule `COc1cc(C(=O)O)cc(OC)c1O` [Compound 17, 4-Hydroxy-3,5-dimethoxybenzoic acid], the values for the 50% inhibitory concentration (IC50) (on α-amylase (setting [2]); in experiment [1]) were 44.8 mM and 32.2 mM, respectively.

(Values after article PMC9102017, “A Structure—Activity Relationship Study of the Inhibition of α-Amylase by Benzoic Acid and Its Derivatives” (Nutrients, 2022).)
